Paper PMC5673977, “Transport Deficiency Is the Molecular Basis of Candida albicans Resistance to Antifungal Oligopeptides” (Frontiers in Microbiology, 2017)
Where a SMILES comes first, the peptide text is derived from it.

How the values were obtained:
Type in all cases: cell-based, Candida albicans
C. albicans SC5314 = assay: Initial peptide uptake rate; conditions: SC 5314; cells grown in YNB-SG; 50 mM potassium phosphate buffer (pH 5.0 or 6.5) + 1% glucose, 30°C, 100 μM peptide, residual peptide by TNBS A420, slope 0- to 10-min
Experimental: (§1) Yeast cells grown exponentially in the YNB-SG medium were harvested by centrifugation (3000 ×g, 5 min), washed with 50 mM potassium phosphate buffer (pH 5.0 or 6.5), and suspended in the same buffer containing 1% glucose, to a final cell density corresponding to A660 ≅ 1.0. The cell suspension was incubated at 30°C. After 10 min, an oligopeptide solution was added, to give a final concentration of 100 μM. At that moment and at 5 min intervals thereafter, 2 mL samples of the cell suspension were withdrawn, immediately filtered through the Whatman GF/A filters and the filtrates were used to determine the residual peptide concentration. Then, the 1 mL portions of the filtrates were taken and combined with 1.25 mL aliquots of a solution containing 4% Na2B4O7 × 10 H2O and 0.8 mg mL^-1 of 2,4,6-trinitrobenzenesulfonate. The reaction was carried out at 37°C for 30 min. The A420 values were measured and the peptide concentration was read from the appropriate standard curve. Data were plotted as nanomoles of an oligopeptide, taken up by 1 mg (dry weight) of cells versus time. The initial uptake velocities were determined from the slopes of the linear part of the curves, in the 0- to 10-min region.

C. albicans opt1Δ = assay: Initial peptide uptake rate; conditions: 50 mM potassium phosphate buffer (pH 5.0 or 6.5) + 1% glucose, 30°C, 100 μM peptide, TNBS A420, slope 0- to 10-min
Experimental: as §1

[1] = system: C. albicans opt1–opt5Δ ptr2Δ ptr22Δ; assay: Initial peptide uptake rate; conditions: 50 mM potassium phosphate buffer (pH 5.0 or 6.5) + 1% glucose, 30°C, 100 μM peptide, TNBS A420, slope 0- to 10-min
Experimental: as §1

C. albicans opt1–opt5Δ = assay: Initial peptide uptake rate; conditions: 50 mM potassium phosphate buffer (pH 5.0 or 6.5) + 1% glucose, 30°C, 100 μM peptide, TNBS A420, slope 0- to 10-min
Experimental: as §1

C. albicans opt2Δ opt3Δ = assay: Initial peptide uptake rate; conditions: 50 mM potassium phosphate buffer (pH 5.0 or 6.5) + 1% glucose, 30°C, 100 μM peptide, TNBS A420, slope 0- to 10-min
Experimental: as §1

C. albicans opt4Δ = assay: Initial peptide uptake rate; conditions: 50 mM potassium phosphate buffer (pH 5.0 or 6.5) + 1% glucose, 30°C, 100 μM peptide, TNBS A420, slope 0- to 10-min
Experimental: as §1

C. albicans opt5Δ = assay: Initial peptide uptake rate; conditions: 50 mM potassium phosphate buffer (pH 5.0 or 6.5) + 1% glucose, 30°C, 100 μM peptide, TNBS A420, slope 0- to 10-min
Experimental: as §1

C. albicans ptr2Δ ptr22Δ = assay: Initial peptide uptake rate; conditions: 50 mM potassium phosphate buffer (pH 5.0 or 6.5) + 1% glucose, 30°C, 100 μM peptide, TNBS A420, slope 0- to 10-min
Experimental: as §1

[2] = system: C. albicans isolates NF1-3 and LNF1-3; assay: Initial peptide uptake rate by isolates resistant to F2/F3; conditions: all six isolates NF1-3, LNF1-3; Figure 4
Experimental: as §1
It is therefore clear that the diminished sensitivity of all six isolates to F2 and F3 was due to the reduced uptake, most likely by permease(s) of the PTR system.

| Compound | Uptake rate ± SD (C. albicans SC5314) | Uptake rate ± SD (C. albicans opt1Δ) | Uptake rate ± SD [1] | Uptake rate ± SD (C. albicans opt1–opt5Δ) | Uptake rate ± SD (C. albicans opt2Δ opt3Δ) | Uptake rate ± SD (C. albicans opt4Δ) | Uptake rate ± SD (C. albicans opt5Δ) | Uptake rate ± SD (C. albicans ptr2Δ ptr22Δ) | Initial uptake rate relative to wild type SC5314 cells [2] |
| --- | --- | --- | --- | --- | --- | --- | --- | --- | --- |
| Ala-Ala-Ala [(Ala)3, reference compound] | 5.62 ± 0.33 nmol min^-1 (mg dry weight)^-1 | 4.89 ± 0.28 nmol min^-1 (mg dry weight)^-1 | <0.1 nmol min^-1 (mg dry weight)^-1 | 4.99 ± 0.36 nmol min^-1 (mg dry weight)^-1 | 4.16 ± 0.22 nmol min^-1 (mg dry weight)^-1 | 3.22 ± 0.27 nmol min^-1 (mg dry weight)^-1 | 3.61 ± 0.30 nmol min^-1 (mg dry weight)^-1 | <0.1 nmol min^-1 (mg dry weight)^-1 | lower |
| Ala-Ala [(Ala)2, reference compound] | 5.12 ± 0.32 nmol min^-1 (mg dry weight)^-1 | 4.50 ± 0.36 nmol min^-1 (mg dry weight)^-1 | <0.1 nmol min^-1 (mg dry weight)^-1 | 5.88 ± 0.40 nmol min^-1 (mg dry weight)^-1 | 3.96 ± 0.29 nmol min^-1 (mg dry weight)^-1 | 4.83 ± 0.31 nmol min^-1 (mg dry weight)^-1 | 5.00 ± 0.38 nmol min^-1 (mg dry weight)^-1 | <0.1 nmol min^-1 (mg dry weight)^-1 | remarkably lower |
| N=C(N)NCCC[C@H](N)C(=O)N[C@@H](CCCCN)C(=O)N[C@@H](CCCCN)C(=O)N[C@@H](Cc1c[nH]c2ccccc12)C(=O)N[C@@H](Cc1ccccc1)C(=O)N[C@@H](Cc1c[nH]c2ccccc12)C(=O)O [Peptide P6, Arg-Lys-Lys-Trp-Phe-Trp, reference compound] (H-RKKWFW-OH) | 2.22 ± 0.11 nmol min^-1 (mg dry weight)^-1 | 1.85 ± 0.15 nmol min^-1 (mg dry weight)^-1 | 0.12 ± 0.03 nmol min^-1 (mg dry weight)^-1 | 0.22 ± 0.07 nmol min^-1 (mg dry weight)^-1 | 0.40 ± 0.09 nmol min^-1 (mg dry weight)^-1 | 2.11 ± 0.16 nmol min^-1 (mg dry weight)^-1 | 1.99 ± 0.10 nmol min^-1 (mg dry weight)^-1 | 2.46 ± 0.19 nmol min^-1 (mg dry weight)^-1 |  |
